“And” between values parts separate entries of the source, which are not always exact repeats. Equal entries are not always repeated.
Settings: Liquid, Closed cell (Static) method

O=C=O [carbon dioxide]
Settings	vapor or sublimation pressure
273.16 K	3485.7 kPa
273.17 K	3485.9 kPa
278.2 K	3977 kPa and 3975 kPa
283.15 K	4500.5 kPa and 4502 kPa
288.15 K	5090.5 kPa and 5087 kPa
293.14 K	5726.5 kPa and 5726.4 kPa
298.15 K	6436.1 kPa and 6430.1 kPa
303.15 K	7214.4 kPa
303.19 K	7212.8 kPa
303.64 K	7290.9 kPa
303.65 K	7297.4 kPa
303.85 K	7329 kPa and 7326.1 kPa
304.04 K	7360.5 kPa and 7358.8 kPa

Source: the NIST ThermoML archive (doi:10.1016/j.jct.2019.03.027)
